Experimental data: article PMC9945182 (Chemical Research in Toxicology, 2023)
Like-named read-outs stand apart in the source and are kept apart here.

Key:
Type in all cases: biochemical
[1] = target: T1, CYP2A6 (Homo sapiens, UniProt P11509); conditions: 10 μM inhibitor; cotinine substrate; CYP2A6 microsomes
T1 sequence (P11509 1-494): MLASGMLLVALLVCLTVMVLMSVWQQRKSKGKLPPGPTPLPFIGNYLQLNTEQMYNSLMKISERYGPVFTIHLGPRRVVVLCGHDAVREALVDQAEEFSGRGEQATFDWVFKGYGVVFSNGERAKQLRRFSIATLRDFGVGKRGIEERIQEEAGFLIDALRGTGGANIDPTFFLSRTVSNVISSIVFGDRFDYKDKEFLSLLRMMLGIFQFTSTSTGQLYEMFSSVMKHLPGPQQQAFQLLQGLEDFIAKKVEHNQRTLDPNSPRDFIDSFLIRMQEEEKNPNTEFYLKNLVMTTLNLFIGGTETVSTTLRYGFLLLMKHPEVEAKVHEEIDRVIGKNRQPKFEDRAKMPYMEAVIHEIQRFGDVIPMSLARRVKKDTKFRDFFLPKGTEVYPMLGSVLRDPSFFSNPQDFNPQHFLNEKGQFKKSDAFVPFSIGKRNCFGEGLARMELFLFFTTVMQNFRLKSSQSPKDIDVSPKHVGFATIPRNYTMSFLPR

[2] = target: T2, UGT1A9 (Homo sapiens, UniProt O60656); conditions: 3HC 30 mM; for decrease in 3HC-Gluc formation: UGT1A9 microsomes; for IC50: rec UGT1A9 microsomes
T2 sequence (O60656 26-530): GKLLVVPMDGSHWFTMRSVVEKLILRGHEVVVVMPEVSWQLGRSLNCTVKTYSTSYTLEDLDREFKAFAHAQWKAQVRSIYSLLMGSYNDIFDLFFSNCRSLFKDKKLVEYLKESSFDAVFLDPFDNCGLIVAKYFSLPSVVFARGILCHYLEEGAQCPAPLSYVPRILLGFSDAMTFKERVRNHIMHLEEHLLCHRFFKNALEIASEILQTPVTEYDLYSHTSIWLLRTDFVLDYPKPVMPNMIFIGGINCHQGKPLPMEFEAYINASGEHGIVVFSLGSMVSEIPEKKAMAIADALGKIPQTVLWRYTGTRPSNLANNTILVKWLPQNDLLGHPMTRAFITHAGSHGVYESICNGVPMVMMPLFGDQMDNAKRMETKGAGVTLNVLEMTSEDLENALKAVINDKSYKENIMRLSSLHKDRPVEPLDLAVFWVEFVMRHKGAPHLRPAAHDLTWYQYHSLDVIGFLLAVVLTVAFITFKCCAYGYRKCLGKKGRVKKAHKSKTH

[3] = target: T3, UGT2B17 (Homo sapiens, UniProt O75795); conditions: UGT2B17 microsomes; 3HC as substrate; screening
T3 sequence (O75795 24-530): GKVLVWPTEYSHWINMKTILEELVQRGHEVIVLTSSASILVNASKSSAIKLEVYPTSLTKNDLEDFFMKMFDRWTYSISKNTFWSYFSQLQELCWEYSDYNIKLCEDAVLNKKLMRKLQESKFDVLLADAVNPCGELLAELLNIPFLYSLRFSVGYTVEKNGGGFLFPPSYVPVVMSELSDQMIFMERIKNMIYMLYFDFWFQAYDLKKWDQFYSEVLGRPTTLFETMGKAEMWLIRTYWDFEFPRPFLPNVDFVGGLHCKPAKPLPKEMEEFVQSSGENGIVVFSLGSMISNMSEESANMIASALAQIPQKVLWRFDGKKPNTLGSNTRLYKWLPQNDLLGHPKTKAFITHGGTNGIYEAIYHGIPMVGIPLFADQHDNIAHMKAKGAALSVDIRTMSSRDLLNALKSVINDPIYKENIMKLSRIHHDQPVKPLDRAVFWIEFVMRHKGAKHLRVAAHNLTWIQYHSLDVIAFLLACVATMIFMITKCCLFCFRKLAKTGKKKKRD

Compound | inhibition of COX formation [1] [%] | decrease in 3HC-Gluc formation ([2]; 1 μM CBD) [%] | decrease in 3HC-Gluc formation ([2]; 10 μM CBD) [%] | IC50 ([2]; IC50, 3HC-Gluc formation, 2% BSA) [µM] | IC50 ([2]; IC50,u (binding-corrected IC50), 3HC-Gluc formation, IC50 × fu,inc) [µM] | effect on 3HC-Gluc formation [3]
C=C(C)[C@@H]1CCC(CO)=C[C@H]1c1c(O)cc(CCCCC)cc1O [7-OH-CBD, 7-hydroxy-cannabidiol] | 40 | – | – | – | – | –
C=C(C)[C@@H]1CCC(C)=C[C@H]1c1c(O)cc(CCCCC)cc1O [CBD, cannabidiol] | – | 55 | 65 | 9.7 ± 1.5 | 0.37 ± 0.06 | not inhibited
